Measurements published in paper PMC5642494 (Oncotarget, 2017).

What was measured:
CDK4/cyclin D1 complexes = molecular target: CDK4/cyclin D1 complexes; set-up: method as in PMID 24919854; conditions: cell-free; read-out: Ki^ATP CDK4/cyclin D1; cited from earlier work
MCF7 cells = experiment: Ki-67 protein expression, MCF7; format: cell-based; conditions: Homo sapiens, 2 DT, read-out: EC50 Ki-67 levels
Experimental: (§1) Relative IC50/EC50 values were determined by curve fitting to a four parameter logistic equation: Y = bottom + ((top-bottom)/ (1+exp(HillSlope*(X – LnIC50)), where X is the natural log of dose/concentration, Y is response, decreasing as X increases, top and bottom are plateaus in the same units as Y, lnIC50 is the natural log of potency, in the same log units as X, and HillSlope measures the steepness of the curve. Data were plotted using GraphPad Prism.
(§2) After 72 hours, cells were stained with an anti-FOXM1 antibody and a secondary goat anti-rabbit IgG, Alexa Fluor® 488 conjugate; nuclei were stained with propidium iodide (PI). Alternatively, for assessment of Ki-67 levels, cells were treated for 2 DT and then stained with Ki-67 and a secondary goat anti-rabbit IgG, Alexa Fluor® 488 conjugate. Plates were read in an Acumen Explorer Ex3 (TTP Labtech) using Cellista software and the percentages of FOXM1 positive and Ki-67 positive cells were calculated over the background signal. Data were normalized in Excel using the mean value obtained from treatment with 2 µM BEZ235 as the minimum and the mean value obtained from treatment with 0.2% DMSO as the maximum.

EFM-19 cells = experiment: Ki-67 protein expression, EFM-19; format: cell-based; conditions: Homo sapiens, 2 DT, read-out: EC50 Ki-67 levels
Experimental: as §1, §2

pRb (Ser780) [1] = experiment: High content imaging of Rb phosphorylation (Ser780), MDA-MB-361; format: cell-based; conditions: Homo sapiens, 16 hours, mean ± Stdev n = 2
Experimental: as §1
(§3) As controls, cells were treated with 10 µM palbociclib or vehicle ( 0.2 % v/v DMSO). Additional details for cell-based assays are provided in the Supplemental Methods. […]
(§4) www.impactjournals.com/oncotarget/ Oncotarget Supplementary Materials
(§5) Preclinical characterization of abemaciclib in hormone receptor […]
(§6) METHODS High content imaging cell-based assays for monitoring phosphorylation of Rb (ser780), G1 arrest and
(§7) Enzyme kinetics of CDK6/cyclin D3 complexes Cells were fixed with para-formaldehyde and Rb phosphorylation at Serine 780 was detected using CDK6/cyclin D3 activity was measured by the a primary mouse anti-Rb (PS780) antibody followed phosphorylation of CTRF using [g-33P] […] Plates were read in an kinase buffer containing 68 mM Hepes at pH 7.5, 6.67 mM Acumen Explorer eX3 (TTP Labtech). […]
(§8) (EDTA) was used to determine the level of background evaluated by measuring PI signal using high content 33P in the absence of enzyme activity. […]

pRb (Ser780) [2] = experiment: High content imaging of Rb phosphorylation (Ser780), MCF7; format: cell-based; conditions: Homo sapiens, mean ± Stdev n = 2
Experimental: as §1, §3, §4, §5, §6, §7, §8

EC50 (MCF7 cells): 42.1 nM
EC50 (EFM-19 cells): 16.7 nM
IC50 (pRb (Ser780) [1]): 67 ± 37 nM
IC50 (pRb (Ser780) [2]): 13 ± 2 nM
Structure (SMILES): CCN1CCN(Cc2ccc(Nc3ncc(F)c(-c4cc(F)c5nc(C)n(C(C)C)c5c4)n3)nc2)CC1 [abemaciclib, Abemaciclib]
Ki (CDK4/cyclin D1 complexes): 0.6 nM
